# Data published in the CATMoS acute toxicity set (Mansouri et al. 2021).
# Where a SMILES comes first, the peptide text is derived from it.
# Assay: GHS categories as the set defines them, by LD50: 1 up to 5, 2 up to 50, 3 up to 300, 4 up to 2000, 5 above 2000 mg/kg
# Conditions: rat; in vivo; po
row,Compound,GHS category
1,N[C@@H](C(=O)N[C@@H]1C(=O)N2C(C(=O)O)=C(Cl)CS[C@H]12)c1ccccc1,5
2,CC#CCC(C)[C@H](O)/C=C/C1[C@H](O)C[C@@H]2C/C(=C\CCCC(=O)O)C[C@H]12 (stereo partly drawn),3
3,O=C(O)[C@@H]1C[C@@H](C2CCCCC2)CN1,5
4,CN1C(=O)COc2cc(C(=O)C=Cc3ccccc3)ccc21,5
5,CC(C)(C)[C@H]1CC[C@H](O)CC1,5
6,Nc1cc(Cl)nc(C(=O)O)c1Cl,5
7,c1ccc2sc(SN3CCOCC3)nc2c1,5
8,CCCC(=O)N(C)C(=O)Oc1cccc2c1OC(C)(C)O2,4
9,O=C1NC(=O)c2cccc3cccc1c23,5
10,CC/C=C\CCOC(=O)CC,5
11,C/C(=C\CO)CCC[C@H](C)CCC[C@H](C)CCCC(C)C,5
12,O=S(=O)(O)Cc1ccccc1,4
13,FC(F)CNCc1ccc(Cl)nc1,5
14,Cn1c(=O)c2c([nH]c(=O)n2C)n(C)c1=O,5
15,CC(=O)OC1CN(C)C(=O)N1c1cc(C(C)(C)C)on1 (stereo not drawn),4
16,CC(C)=CCN(CC=C(C)C)CCC(C#N)(c1ccc2ccccc2c1)C(C)C (stereo not drawn),4
17,CN1C(C(=O)Nc2ccccn2)=C(Nc2ccccn2)c2sc(Cl)cc2S1(=O)=O,2
18,Cc1cc(=O)[nH]c2cc(OCCCN3CCC(Cc4ccccc4)CC3)ccc12,4
19,CC(C)OP(O)(=S)OC(C)C,4
20,COc1ccc2c(c1)CCN(c1ccccc1)C2c1ccccc1F (stereo not drawn),4
21,CSCC[C@H](NC(=O)CCSC(=O)c1ccccc1)C(=O)O,5
22,CSc1nc(N)c2c(C)coc2n1,5
23,C=CCC(C)C,5
24,CN(c1ccccc1)S(=O)(=O)c1cc(O)c2c(N=Nc3ccc(NC(=O)CCl)cc3S(=O)(=O)O)c(N)ccc2c1,5

row,Compound,GHS category
1,CN1C(=O)COc2cc(C(=O)c3ccccc3)ccc21,5
2,Cc1ccc(Nc2ccc(Nc3ccc(C)cc3S(=O)(=O)O)c3c2C(=O)c2ccccc2C3=O)c(S(=O)(=O)O)c1,5
3,O=C(c1ccc(F)cc1)c1cc(I)ccc1Cl,5
4,CCCc1c(Cc2ccc(-c3ccccc3-c3nn[nH]n3)cc2)c(=O)nc2nc(N)[nH]n12,4
5,CCN(C(=O)CCCSc1nnnn1C)C1CCCCC1,4
6,Clc1ccc(CSc2ccc(Cl)cc2)cc1,5
7,CCCC(=O)c1ccc2c(c1)OCC(=O)N2C,5
8,COc1ccc(C2NC(=O)CCS2)cc1 (stereo not drawn),5
9,Cc1ccccc1N1C(=O)c2cc(S(N)(=O)=O)c(Cl)cc2NC1C (stereo not drawn),5
10,CC(=O)Oc1ccccc1C(=O)Nc1ncc([N+](=O)[O-])s1,5
11,CC(=O)OCOC(=O)C1=C(COC(N)=O)SC2C(C(C)O)C(=O)N12 (stereo not drawn),5
12,O=S(=O)(O)c1cccc(N=Nc2ccc(N=Nc3ccc(Nc4ccccc4)c4c(S(=O)(=O)O)cccc34)c3ccccc23)c1,5
13,Cc1ccccc1OP(Oc1ccccc1C)Oc1ccccc1C,4
14,CCC(=O)C=CC1C(C)=CCCC1(C)C (stereo not drawn),5
15,CC1CC(OC(=O)C(C)(C)Oc2ccccc2Cl)CC(C)(C)C1 (stereo not drawn),5
16,CCCCCCCCCCCCCCCC(=O)OC,5
17,COC(Cn1cncn1)(OC)c1cc2ccccc2o1,4
18,CCC1COC(=O)O1 (stereo not drawn),5
19,CCCCCCCCCNP1(=S)OCc2cc([N+](=O)[O-])ccc2O1 (stereo not drawn),3
20,CCCCCCCCCC(C)C(OC)OC (stereo not drawn),5
21,CNC(=O)C(=NNc1ccccc1Cl)C(C)=O,5
22,CC1(C)O[C@@H]2C[C@H]3[C@@H]4C[C@H](F)C5=CC(=O)C=C[C@]5(C)[C@H]4[C@@H](O)C[C@]3(C)[C@]2(C(=O)CO)O1,1
23,COc1ccc(C2(O)c3ccccc3C3=NCCN32)cc1 (stereo not drawn),4
24,COc1ccc(Cl)cc1N/C(=N/C1CCCCC1)c1ccccc1C,4

row,Compound,GHS category
1,COC(=O)CSP(=S)(OC)OC,5
2,CCCCCCCCCl,5
3,CCCc1ccc(OCC(=O)N2CCN(C(=O)COc3ccc(CCC)cc3OC)CC2)c(OC)c1,4
4,CCCCCC(=O)OC,5
5,CC(C)NP1(=S)OCc2cc([N+](=O)[O-])ccc2O1 (stereo not drawn),3
6,COC(=O)c1ccc2c(c1)NC(=O)C2,5
7,Clc1ccccc1-c1nnc(-c2ccccc2Cl)nn1,5
8,O=C1CC(=O)NC(=S)N1,5
9,CS(C)(=O)=O,5
10,FC(F)(Cl)C(F)(Cl)C(F)(Cl)C(F)(F)Cl (stereo not drawn),5
11,Nc1nc(=O)c2c(CCc3ccc(C(=O)O)cc3)c[nH]c2[nH]1,5
12,CNC(=O)Oc1cccc2c1OC(C)(C(C)(C)C)O2 (stereo not drawn),4
13,OCC1CN2CCN1CC2 (stereo not drawn),5
14,CC1=CC(=O)N(Cc2cccc(CN3C(=O)C=C(C)C3=O)c2)C1=O,5
15,CCCc1c(Cc2ccc(-c3ccccc3-c3nn[nH]n3)cc2)c(N2CCCC2)nc2ncnn12,4
16,COCCOC=C1OC2=C(C(=O)N1c1ccccn1)N(C)S(=O)(=O)c1cc(Cl)sc12,2
17,C[C@@H]1C[C@H]2C3C[C@H](F)C4=CC(=O)C=CC4(C)[C@@]3(F)[C@@H](O)CC2(C)[C@@]1(O)C(=O)COC(=O)C(C)(C)C (stereo partly drawn),5
18,CCC1(CO)COCOC1,5
19,CN(CC(=O)O)N=O,5
20,CC(C)(C)C(=O)OCOC(=O)[C@@H]1N2C(=O)[C@@H](NC(=O)[C@H](N)c3ccccc3)[C@H]2SC1(C)C,5
21,CNC(=O)c1c(I)c(NC(=O)CCCCC(=O)Nc2c(I)c(C(=O)O)c(I)c(C(=O)NC)c2I)c(I)c(C(=O)O)c1I,5
22,NCCCC(N)(C(=O)O)C(F)F (stereo not drawn),5
23,O=[N+]([O-])c1ccc2nc[nH]c2c1,4
24,COc1cc(S(=O)(=O)O)c(C)cc1NC(=O)CC(C)=O,5

row,Compound,GHS category
1,O=C(O)c1ccc(B(O)O)cc1,5
2,O=C(NNCc1ccccc1)C(O)C(O)C(O)CO (stereo not drawn),5
3,CCO[Si](C)(CCCCl)OCC,5
4,CCOC(=O)C(=O)Nc1cc(OCCOC)nc(C)n1,4
5,CCCCCCCOCC(COCCCCCCC)(COCCCCCCC)COCCCCCCC,5
6,CC(C)C(=O)OCCOc1ccccc1,5
7,COC(=O)[C@H](Cc1ccccc1)NC(=O)[C@@H](N)CC(=O)O (H-Asp-Phe-OMe),5
8,C=C1CC[C@@]23C[C@@H]1C(C)(C)[C@@H]2C(O)C[C@H]3C (stereo partly drawn),5
9,CCC=CCC=CCC=CCC=CCC=CCCCCCC(=O)O,5
10,CCCCOC(=O)C=Cc1ccccc1,5
11,Cc1ccc(Cl)cc1N=Nc1c(O)c(C(=O)Nc2cc(C)c(NC(=O)c3cc4ccccc4c(N=Nc4cc(Cl)ccc4C)c3O)cc2C)cc2ccccc12,5
12,O=CCCc1ccccc1,5
13,CC(c1ccccc1)c1ccc(Nc2ccc(C(C)c3ccccc3)cc2)cc1 (stereo not drawn),5
14,CCCCCCCCNC(C)C(O)c1ccc2c(c1)CCCS2 (stereo not drawn),5
15,CS(=O)(=O)OC[C@@H](OS(C)(=O)=O)[C@@H](O)[C@H](O)[C@@H](COS(C)(=O)=O)OS(C)(=O)=O,5
16,NC(N)=Nc1nc2c(s1)CN(C(=O)NC1CC1)CC2,4
17,C=COC(=O)C1=C(C)N[C@@](C)(c2ccc(N3CCN(C(c4ccccc4)c4ccccc4)CC3)cc2)C(C(=O)OC)C1c1cccc([N+](=O)[O-])c1 (stereo partly drawn),4
18,CNC(=O)C(=NNc1ccc(C)cc1)C(C)=O,5
19,CCCC1O[C@@H]2C[C@H]3[C@@H]4CCC5=CC(=O)C=C[C@]5(C)[C@H]4[C@@H](O)C[C@]3(C)[C@]2(C(=O)CO)O1 (stereo partly drawn),5
20,Cc1ncoc1C(N)=O,5
21,C,5
22,Cc1cc(C)c(C2=C(OC(=O)CC(C)(C)C)C3(CCCC3)OC2=O)c(C)c1,5
23,Cc1cc(=O)nc(C(C)(C)O)[nH]1,5
24,Nc1nc(COc2ccc(Cl)cc2)nc(NCCc2ccccc2)n1,5

row,Compound,GHS category
1,CC(C)=CCC(C#N)(CCN1CCCC1)c1cccc2ccccc12 (stereo not drawn),4
2,CCSc1nc(N)c2c(C)coc2n1,5
3,O=[N+]([O-])c1ccc(C(O)C(CO)N=Cc2ccc(N(CCCl)CCCl)cc2)cc1 (stereo not drawn),5
4,Cc1c(CC(=O)O)c2c(n1CC(C)C)CC(C)(C)CC2=O,5
5,O=C1CCc2c(OCC(O)CN3CCC(Cc4ccccc4)CC3)ccc(Br)c2N1 (stereo not drawn),4
6,CN1C(=O)CCc2c(OCCCN3CCC(Cc4ccccc4)CC3)cccc21,4
7,NC[C@@H]1CC[C@@H](N)[C@@H](O[C@H]2[C@H](O)[C@@H](O[C@H]3O[C@H](CO)[C@@H](O)[C@H](N)[C@H]3O)[C@H](N)C[C@@H]2N)O1,5
8,CCC(=O)OCCCc1ccccc1,5
9,Cc1cc2c(cc1S(N)(=O)=O)S(=O)(=O)CCC2,5
10,Nc1c(Br)cc([N+](=O)[O-])cc1Br,4
11,NC(N)=NCc1ccc2c(c1)OCCO2,5
12,CC(=O)OC1CCC2CCCCC2C1 (stereo not drawn),5
13,N#Cc1c(Cl)nc(Cl)c(C#N)c1-c1ccccc1,5
14,C=C(C)C1CCC(C)C(OC(C)=O)C1 (stereo not drawn),5
15,CNc1nc(Nc2ccccc2)nc(Nc2ccc(C=Cc3ccc(Nc4nc(NC)nc(Nc5ccccc5)n4)cc3S(=O)(=O)O)c(S(=O)(=O)O)c2)n1,5
16,Cc1onc(-c2ccccc2)c1C(=O)N[C@@H]1C(=O)N2[C@@H]1SC(C)(C)[C@@H]2C(=O)O,5
17,CCOC(=O)C(C)(C)Oc1ccc2c(c1)C=C(n1ccnc1)CC2,5
18,CCCCC(CC)COCC(O)COc1ccc(-c2nc(-c3ccc(C)cc3C)nc(-c3ccc(C)cc3C)n2)c(O)c1 (stereo not drawn),5
19,CCN(CC)c1ccc(N=Nc2ncc([N+](=O)[O-])s2)cc1,5
20,CCCCCCCCCCN(C)C,5
21,COc1ccc2c(c1)CCN(c1ccccc1)C2c1ccccc1 (stereo not drawn),4
22,Cc1ccc(C(C)C)cc1OC(=O)c1ccccc1Nc1cccc(C)c1C,5
